Measured values as given in US10125138B2, “Triazolotriazinone derivatives having activity a s herbicides” (Syngenta Participations AG, priority 2015, dated 2018).

What was measured:
Format in all cases: in vivo
Settings in all cases: 1000 g/h, evaluated after 13 days, five point scale
[1] = system: Echinochloa crus-galli (ECHCG); assay: Post-emergence glasshouse herbicide test, Echinochloa crus-galli
[2] = system: Lolium perenne (LOLPE); assay: Post-emergence glasshouse herbicide test, Lolium perenne
[3] = system: Ipomoea hederacea (IPOHE); assay: Pre-emergence glasshouse herbicide test, Ipomoea hederacea
[4] = system: Lolium perenne (LOLPE); assay: Pre-emergence glasshouse herbicide test, Lolium perenne
[5] = system: Setaria faberi (SETFA); assay: Post-emergence glasshouse herbicide test, Setaria faberi
[6] = system: Echinochloa crus-galli (ECHCG); assay: Pre-emergence glasshouse herbicide test, Echinochloa crus-galli
[7] = system: Solanum nigrum (SOLNI); assay: Pre-emergence glasshouse herbicide test, Solanum nigrum
In short: (§1)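 Sow in standard soil; grow 1 d (pre-em.) or 8 d (post-em.) at 24/16 °C, 14 h light, 65% RH; spray 1000 g/h (acetone/water 50:50, 0.5% Tween 20); water twice daily; score % damage at 13 d, 5-point scale.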

[8] = system: Amaranthus retoflexus (AMARE); assay: Pre-emergence glasshouse herbicide test, Amaranthus retoflexus
[9] = system: Solanum nigrum (SOLNI); assay: Post-emergence glasshouse herbicide test, Solanum nigrum
In short: as §1

[10] = system: Ipomoea hederacea (IPOHE); assay: Post-emergence glasshouse herbicide test, Ipomoea hederacea
[11] = system: Setaria faberi (SETFA); assay: Pre-emergence glasshouse herbicide test, Setaria faberi
[12] = system: Amaranthus retoflexus (AMARE); assay: Post-emergence glasshouse herbicide test, Amaranthus retoflexus

Row | SMILES | percentage damage caused to the plant, POST Application ECHCG [1] | percentage damage caused to the plant, POST Application LOLPE [2] | percentage damage caused to the plant, PRE Application IPOHE [3] | percentage damage caused to the plant, PRE Application LOLPE [4] | percentage damage caused to the plant, POST Application SETFA [5] | percentage damage caused to the plant, PRE Application ECHCG [6] | percentage damage caused to the plant, PRE Application SOLNI [7] | percentage damage caused to the plant, PRE Application AMARE [8] | percentage damage caused to the plant, POST Application SOLNI [9] | percentage damage caused to the plant, POST Application IPOHE [10] | percentage damage caused to the plant, PRE Application SETFA [11] | percentage damage caused to the plant, POST Application AMARE [12]
1 | CCCn1nnnc1NC(=O)c1nn2cnn(-c3ccc(F)cc3)c2nc1=O [Compound 1.038] | 5 (5=80-100%) | 5 (5=80-100%) | 5 (5=80-100%) | 4 (4=60-79%) | 5 (5=80-100%) | 5 (5=80-100%) | 5 (5=80-100%) | 5 (5=80-100%) | 5 (5=80-100%) | 5 (5=80-100%) | 5 (5=80-100%) | 5 (5=80-100%)
2 | CCCCn1nnnc1NC(=O)c1nn2cnn(-c3ccc(F)cc3)c2nc1=O [Compound 1.039] | 5 (5=80-100%) | 5 (5=80-100%) | 4 (4=60-79%) | 5 (5=80-100%) | 5 (5=80-100%) | 5 (5=80-100%) | 5 (5=80-100%) | 5 (5=80-100%) | 5 (5=80-100%) | 5 (5=80-100%) | 5 (5=80-100%) | 5 (5=80-100%)
3 | CCCCn1nnnc1NC(=O)c1nn2cnn(-c3ccc(OC)cc3)c2nc1=O [Compound 1.040] | 3 (3=40-59%) | 5 (5=80-100%) | 5 (5=80-100%) | 5 (5=80-100%) | 4 (4=60-79%) | 5 (5=80-100%) | 5 (5=80-100%) | 3 (3=40-59%) | 5 (5=80-100%) | 5 (5=80-100%) | 5 (5=80-100%) | 4 (4=60-79%)
4 | CCn1nnnc1NC(=O)c1nn2cnn(-c3ccc(C(F)(F)F)cc3)c2nc1=O [Compound 1.042] | 3 (3=40-59%) | 3 (3=40-59%) | 4 (4=60-79%) | 4 (4=60-79%) | 4 (4=60-79%) | 5 (5=80-100%) | 5 (5=80-100%) | 5 (5=80-100%) | 5 (5=80-100%) | 4 (4=60-79%) | 5 (5=80-100%) | 4 (4=60-79%)
5 | CCCn1nnnc1NC(=O)c1nn2cnn(-c3ccc(C(F)(F)F)cc3)c2nc1=O [Compound 1.043] | 1 (1=0-19%) | 3 (3=40-59%) | 3 (3=40-59%) | 3 (3=40-59%) | 4 (4=60-79%) | 2 (2=20-39%) | 5 (5=80-100%) | 4 (4=60-79%) | 5 (5=80-100%) | 4 (4=60-79%) | 5 (5=80-100%) | 5 (5=80-100%)
6 | CCCCn1nnnc1NC(=O)c1nn2cnn(-c3ccc(C(F)(F)F)cc3)c2nc1=O [Compound 1.044] | 1 (1=0-19%) | 3 (3=40-59%) | 3 (3=40-59%) | 3 (3=40-59%) | 3 (3=40-59%) | 2 (2=20-39%) | 5 (5=80-100%) | 3 (3=40-59%) | 5 (5=80-100%) | 5 (5=80-100%) | 3 (3=40-59%) | 4 (4=60-79%)
7 | CCn1nnnc1NC(=O)c1nn2cnn(-c3ccc(C)cc3C)c2nc1=O [Compound 1.045] | 5 (5=80-100%) | 5 (5=80-100%) | 5 (5=80-100%) | 5 (5=80-100%) | 5 (5=80-100%) | 5 (5=80-100%) | 5 (5=80-100%) | 5 (5=80-100%) | 5 (5=80-100%) | 5 (5=80-100%) | 4 (4=60-79%) | 5 (5=80-100%)
8 | Cn1ncnc1NC(=O)c1nn2cnn(-c3ccc(F)cc3)c2nc1=O [Compound 2.001] | 4 (4=60-79%) | 4 (4=60-79%) | 4 (4=60-79%) | 3 (3=40-59%) | 5 (5=80-100%) | 5 (5=80-100%) | 5 (5=80-100%) | 5 (5=80-100%) | 5 (5=80-100%) | 5 (5=80-100%) | 5 (5=80-100%) | 5 (5=80-100%)
9 | Cn1cnnc1NC(=O)c1nn2cnn(-c3ccc(F)cc3)c2nc1=O [Compound 3.001] | 1 (1=0-19%) | 1 (1=0-19%) | 1 (1=0-19%) | 1 (1=0-19%) | 1 (1=0-19%) | 1 (1=0-19%) | 1 (1=0-19%) | 3 (3=40-59%) | 5 (5=80-100%) | 1 (1=0-19%) | 1 (1=0-19%) | 3 (3=40-59%)
